Assay results published in patent publication US20230002359A1, “PESTICIDALLY ACTIVE FUSED BICYCLIC HETEROAROMATIC COMPOUNDS” (priority 2019, published 2023).

Legend:
[1] = test system: Diabrotica Balteata (Corn Root Worm); test: Example B1: Diabrotica balteata (corn root worm), maize sprouts sprayed, L2 larvae; assay type: in vivo; conditions: 96 h, application rate of 200 ppm, 4 days after infestation, L2 larvae, read-out: control in at least one of the two categories (mortality or growth inhibition)
Procedure, shortened: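 Larvae at L2 stage, 6 to 10 per well, feed on dried, spray-treated maize sprouts set on agar. Evaluation after 4 days compares mortality and growth inhibition with untreated samples.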

[2] = test system: Chilo suppressalis (Striped Rice Stemborer); test: Example B3: Chilo suppressalis (striped rice stemborer), artificial diet, L2 larvae; assay type: in vivo; conditions: 144 h, application rate of 200 ppm, 6 days after infestation, L2 larvae, read-out: control in at least one of the three categories (mortality, anti-feedant effect, or growth inhibition)
Procedure, shortened: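 First, artificial diet was treated with aqueous solutions prepared from 10'000 ppm DMSO stocks; second, after drying, L2 larvae (6-8/well) were added; third, effects were assessed at 6 days against untreated controls, counting control when any of three categories was higher.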

[3] = test system: Plutella xylostella (Diamond Back Moth); test: Example B4: Plutella xylostella (diamond back moth), artificial diet, eggs, 24-well; assay type: in vivo; conditions: 192 h, application rate of 200 ppm, 8 days after infestation, eggs, read-out: control in at least one of the two categories (mortality or growth inhibition)
Protocol: 24-well microtiter plates with artificial diet were treated with aqueous test solutions prepared from 10′000 ppm DMSO stock solutions by pipetting. After drying, Plutella eggs were pipetted through a plastic stencil onto a gel blotting paper and the plate was closed with it. The samples were assessed for mortality and growth inhibition in comparison to untreated samples 8 days after infestation.

[4] = test system: Spodoptera littoralis (Egyptian Cotton Leaf Worm); test: Example B7: Spodoptera littoralis (Egyptian cotton leaf worm), cotton leaf discs sprayed, L1 larvae; assay type: in vivo; conditions: foliar, 72 h, application rate of 200 ppm, 3 days after infestation, L1 larvae, read-out: control in at least one of the three categories (mortality, anti-feedant effect, or growth inhibition)
Procedure, shortened: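 Cotton leaf discs on agar were sprayed with aqueous test solutions made from 10′000 ppm DMSO stocks, dried, then infested with five L1 larvae. Mortality, anti-feeding effect and growth inhibition were scored against untreated discs 3 days after infestation; control means any category exceeds untreated.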

[5] = test system: Plutella xylostella (Diamondback Moth); test: Example B9: Plutella xylostella (diamondback moth), artificial diet, eggs, 96-well; assay type: in vivo; conditions: 216 h, application rate of 500 ppm, 9 days after infestation, read-out: control in mortality
Protocol: 96-well microtiter plates containing artificial diet were treated with aqueous test solutions, prepared from 10′000 ppm DMSO stock solutions, by a liquid handling robot. After drying, eggs (˜30 per well) were infested onto a netted lid which was suspended above the diet. The eggs hatch and L1 larvae move down to the diet. The samples were assessed for mortality 9 days after infestation.

[6] = test system: Myzus persicae (Green Peach Aphid); test: Example B5: Myzus persicae (green peach aphid) feeding/contact activity, sunflower leaf discs; assay type: in vivo; conditions: foliar, 144 h, application rate of 200 ppm, 6 days after infestation
Protocol: Sunflower leaf discs were placed onto agar in a 24-well microtiter plate and sprayed with aqueous test solutions prepared from 10′000 ppm DMSO stock solutions. After drying, the leaf discs were infested with an aphid population of mixed ages. The samples were assessed for mortality 6 days after infestation.

[7] = test system: Myzus persicae (Green Peach Aphid); test: Example B6: Myzus persicae (green peach aphid) intrinsic activity, sucrose solution; assay type: in vivo; conditions: 120 h, test rate of 12 ppm, 5 days after infestation, intrinsic activity, read-out: mortality
Procedure, shortened: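 Mortality was read 5 days after infestation. Aphids on pea seedlings fed through a stretched Parafilm membrane on inverted 24-well plates containing sucrose solution mixed with test compound, which was diluted from 10′000 ppm DMSO stock.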

[8] = test system: Spodoptera littoralis (Egyptian Cotton Leaf Worm); test: Example B8: Spodoptera littoralis (Egyptian cotton leaf worm), uptake by lettuce roots from agar, eggs; assay type: in vivo; conditions: 144 h, test rate of 12.5 ppm, 6 days after infestation, compound absorbed by lettuce roots, read-out: control in at least one of the three categories (mortality, anti-feeding, or growth inhibition)
Description: Test compounds were applied by pipette from 10′000 ppm DMSO stock solutions into 24-well plates and mixed with agar. Lettuce seeds were placed onto the agar and the multi well plate was closed by another plate which contained also agar. After 7 days the compound was absorbed by the roots and the lettuce grew into the lid plate. The lettuce leaves were then cut off into the lid plate. Spodoptera eggs were pipetted through a plastic stencil onto a humid gel blotting paper and the lid plate was closed with it. The samples were assessed for mortality, anti-feedant effect and growth inhibition in comparison to untreated samples 6 days after infestation.
The following compounds gave an effect of at least 80% control in at least one of the three categories (mortality, anti-feeding, or growth inhibition) at a test rate of 12.5 ppm: P.58, P.93, P.94, P.95, P.130, P.254, P.256.

melting point [°C]	SMILES	percent control (mortality or growth inhibition) at 200 ppm [1] [%]	percent control (mortality, anti-feedant effect or growth inhibition) at 200 ppm [2] [%]	percent control (mortality or growth inhibition) at 200 ppm [3] [%]	percent control (mortality, anti-feedant effect or growth inhibition) at 200 ppm [4] [%]	mortality at 500 ppm [5] [%]	other results
	CC(Nc1ncnc2c(Cl)cc(Cl)cc12)c1ncnn1-c1ncccn1 (stereo not drawn) [P.68, 6,8-dichloro-N-[1-(2-pyrimidin-2-yl-1,2,4-triazol-3-yl)ethyl]quinazolin-4-amine]	≥ 80	≥ 80	≥ 80	≥ 80	≥ 80	
	CC(c1ncnn1-c1ccc(C#N)cn1)N(C)c1ncnc2c(C(F)(F)F)cc(Br)cc12 (stereo not drawn) [P.52, 6-[5-[1-[[6-bromo-8-(trifluoromethyl)quinazolin-4-yl]-methyl-amino]ethyl]-1,2,4-triazol-1-yl]pyridine-3-carbonitrile]	≥ 80	≥ 80	≥ 80	≥ 80	≥ 80	mortality at 200 ppm [6]: ≥ 80%; mortality at 12 ppm [7]: ≥ 80%
	C[C@@H](c1ncnn1-c1ccc(C#N)cn1)N(C)c1ccnc2c(Br)cc(C(F)(F)F)cc12 [P.254, 6-[5-[(1S)-1-[[8-bromo-6-(trifluoromethyl)-4-quinolyl]-methyl-amino]ethyl]-1,2,4-triazol-1-yl]pyridine-3-carbonitrile]	≥ 80	≥ 80	≥ 80	≥ 80		percent control (mortality, anti-feeding or growth inhibition) at 12.5 ppm [8]: ≥ 80%
	CC(Nc1ncnc2c(Cl)cc(Cl)cc12)c1ncnn1-c1ccc(C#N)cn1 (stereo not drawn) [P.65, 6-[5-[1-[(6,8-dichloroquinazolin-4-yl)amio]ethyl]-1,2,4-triazol-1-yl]pyridine-3-carbonitrile]		≥ 80	≥ 80		≥ 80	
	CC(c1ncnn1-c1ncccn1)N(C)c1ncnc2c(Cl)cc(Cl)cc12 (stereo not drawn) [P.66, 6,8-dichloro-N-methyl-N-[1-(2-pyrimidin-2-yl-1,2,4-triazol-3-yl)ethyl]quianzolin-4-amine]	≥ 80	≥ 80	≥ 80		≥ 80	mortality at 12 ppm [7]: ≥ 80%
	Cc1nc(NC(C)c2ncnn2-c2ccc(C#N)cn2)c2cc(C(F)(F)F)cc(C(F)(F)F)c2n1 (stereo not drawn) [P.60, 6-[5-[1-[[2-methyl-6,8-bis(trifluoromethyl)quinazolin-4-yl]amino]ethyl]-1,2,4-triazol-1-yl]pyridine-3-carbonitrile]		≥ 80	≥ 80		≥ 80	
	CC(Nc1ccnc2c(Cl)cc(Cl)cc12)c1ncnn1-c1ncccn1 (stereo not drawn) [P.67, 6,8-dichloro-N-[1-(2-pyrimidin-2-yl-1,2,4-triazol-3-yl)ethyl]quinolin-4-amine]	≥ 80	≥ 80	≥ 80	≥ 80	≥ 80	
	CC(Nc1ncnc2c(C(F)(F)F)cccc12)c1ncnn1-c1ccc(C#N)cn1 (stereo not drawn) [P.62, 6-[5-[1-[[8-(trifluoromethyl)quinazolin-4-yl]amino]ethyl]-1,2,4-triazol-1-yl]pyridine-3-carbonitrile]		≥ 80	≥ 80		≥ 80	
	CC(Nc1ncnc2ccc(C(F)(F)F)cc12)c1ncnn1-c1ccc(C#N)cn1 (stereo not drawn) [P.64, 6-[5-[1-[[6-(trifluoromethyl)quinazolin-4-yl]amino]ethyl]-1,2,4-triazol-1-yl]pyridine-3-carbonitrile]	≥ 80	≥ 80	≥ 80	≥ 80	≥ 80	
251 to 253	CC(c1nccnc1-c1ccc(C#N)cn1)N(CC1CC1)c1ncnc2c(C(F)(F)F)cc(Br)cc12 (stereo not drawn)						
274 to 276	CC(Nc1ncnc2c(C(F)(F)F)cc(Cl)cc12)c1ncnn1-c1ccc(Br)cn1 (stereo not drawn)						
204 to 206	C[C@H](Nc1c(C#N)cnc2c(C(F)(F)F)cc(C(F)(F)F)cc12)c1ncnn1-c1ccc(C#N)cn1						
75 to 77	CC(c1ncnn1-c1ccc(OC(F)F)cn1)N(C)c1ncnc2c(Br)cc(C(F)(F)F)cc12 (stereo not drawn)						
	CC(Nc1nccc2c(C(F)(F)F)cccc12)c1ncnn1-c1ccccn1 (stereo not drawn) [P.69, N-[1-[2-(2-pyridyl)-1,2,4-triazol-3-yl]ethyl]-5-(trifluoromethyl)isoquino-lin-1-amine]					≥ 80	
	C[C@H](Nc1ccnc2c(Br)cc(C(F)(F)F)cc12)c1ncnn1-c1ccc(C#N)cn1 [P.256, 6-[5-[(1S)-1-[[8-bromo-6-(trifluoromethyl)-4-quinolyl]amino]ethyl]-1,2,4-triazol-1-yl]pyridine-3-carbonitrile]	≥ 80	≥ 80	≥ 80	≥ 80		percent control (mortality, anti-feeding or growth inhibition) at 12.5 ppm [8]: ≥ 80%
214 to 216	CC(Nc1ncnc2c(C(F)(F)F)cc(Br)cc12)c1ncnn1-c1ccc(Br)cn1 (stereo not drawn)						
230 to 232	CC(Nc1ncnc2c(Cl)cc(C(F)(F)F)cc12)c1nccnc1-c1ccc(Br)cn1 (stereo not drawn)						
	CC(Nc1ncnc2c(C(F)(F)F)cc(Br)cc12)c1ncnn1-c1ccc(C#N)cn1 (stereo not drawn) [P.63, 6-[5-[1-[[6-bromo-8-(trifluoromethyl)quinazolin-4-yl]amino]ethyl]-1,2,4-triazol-1-yl]pyridine-3-carbonitrile]		≥ 80	≥ 80	≥ 80	≥ 80	
144 to 146	C[C@@H](c1ncnn1-c1ccc(-c2ncon2)cn1)N(C)c1ncnc2c(C(F)(F)F)cc(Cl)cc12						
	CC(Nc1ncnc2c(Cl)nccc12)c1nccnc1-n1nccn1 (stereo not drawn) [P.277, 8-chloro-N-[1-[3-(triazol-2-yl)pyrazin-2-yl]ethyl]pyrido[3,4-d]pyrimidin-4-amine]					≥ 80	
	CC(Nc1ncnc2c(C(F)(F)F)cc(C(F)(F)F)cc12)c1ncnn1-c1ccc(C#N)cn1 (stereo not drawn) [P.61, 6-[5-[1-[[6,8-bis(trifluoromethyl)quina-zolin-4-yl]amino]ethyl]-1,2,4-triazol-1-yl]pyridine-3-carbonitrile]		≥ 80	≥ 80	≥ 80	≥ 80	
